Among the data in patent US8198307B2, “Imidazole derivatives having aryl piperidine substituent, method for preparation thereof and pharmaceutical compositions containing same” (Korea Research Institute of Chemical Technology, priority 2007, dated 2012) are IC50 values, retold here.

For this test, the target named is T1, MCH R1 (melanine-concentrating hormone receptor-1) (Homo sapiens, UniProt Q99705).
T1 construct: purchased Euroscreen, Gosselies, Belgium
Kind of test: Inhibitory effects on MCH R1 binding (Eu-MCH time-resolved fluorescence binding assay). To be noted: concentration inhibiting the binding of MCH (Eu-MCH, 2 nM) to MCH R1 by 50% in vitro; TRF readout; test range 1 nM to 10 μM; read-out: IC50. On the procedure:
First, MCH R1 (melanine-concentrating hormone receptor-1; Euroscreen, Gosselies, Belgium), 1 μM Europium-labeled melanine-concentrating hormone (Eu-MCH, PerkinElmer, Turku, Finland) and 1 mM melanine-concentrating hormone (MCH, #070-47, Phoenix, Belmont Calif., USA) were kept at 4° C. for ready use. 1 μM Eu-MCH and 1 mM MCH were diluted with an experimental solution (25 mM HEPES pH 7.4, 5 mM MgCl2, 1 mM CaCl2 and 0.5% (w/w) BSA) to 8 nM (final reaction concentration: 2 nM) and 2 μM (final reaction concentration: 0.5 μM), respectively. The compounds prepared in the Examples (“Test compounds”) were dissolved in the experimental solution in concentration of 4 nM to 40 μM (final reaction concentration: 1 nM to 10 μM). MCH R1 (200 assays/vial) was homogeneously dispersed in the experimental solution.
Then, 100 μl/well of the following reaction mixture was added to the wells of a microplate (Multiwell 96 well filter plates PN5020, Pall Co., Ann Arbor, Mich., USA) equipped with a filter paper, with an 8-channel pipette (multi 8-channel, Eppendorf, Hamburg, Germany). Specifically, to the wells of a non-specific binding control group, 25 μl of Eu-MCH, 50 μl of MCH R1 and 25 μl of MCH were added. Further, 25 μl of the experimental solution supplemented with 10% (w/w) of DMSO, 25 μl of Eu-MCH and 50 μl of MCH R1 were added to the wells of a total binding control group, while 25 μl of the test compounds, 25 μl Eu-MCH and 50 μl of MCH R1 were added to the wells of an experimental group. Subsequently, the microplate was shaken gently for 15 seconds and kept at room temperature for 90 minutes to allow the reaction to take place. Then, the plate was washed with a microplate washer (EMBLA, Molecular Devices) by washing three times with 300 μl of a washing solution (25 mM HEPES pH 7.4, 5 mM MgCl2, 1 mM CaCl2) to remove the residual unreacted Eu-MCH. Moisture was removed from the bottom of the wells and 150 μl of dissociation solution (DELFIA Enhancement solution, PerkinElmer, Turku, Finland) was added to each well, followed by keeping the plate at room temperature for 2 to 4 hours. Subsequently, time-resolved fluorescence (TRF) values were measured with a multilabel counter (Victor2, PerkinElmer, Turku, Finland) (emission wave length: 615 nm, excitation wave length: 340 nm). The inhibition rate based on the time-resolved fluorescence data was calculated using the following Equation (I). Inhibition rate of time-resolved fluorescence (%)=[(Average TRF value of the total binding group−Time-resolved fluorescence value of the test compound)/(Average TRF value of the total binding group−Average TRF value of the non-specific binding group)]×100 (I)

T1 sequence (Q99705 whole entry, species assumed): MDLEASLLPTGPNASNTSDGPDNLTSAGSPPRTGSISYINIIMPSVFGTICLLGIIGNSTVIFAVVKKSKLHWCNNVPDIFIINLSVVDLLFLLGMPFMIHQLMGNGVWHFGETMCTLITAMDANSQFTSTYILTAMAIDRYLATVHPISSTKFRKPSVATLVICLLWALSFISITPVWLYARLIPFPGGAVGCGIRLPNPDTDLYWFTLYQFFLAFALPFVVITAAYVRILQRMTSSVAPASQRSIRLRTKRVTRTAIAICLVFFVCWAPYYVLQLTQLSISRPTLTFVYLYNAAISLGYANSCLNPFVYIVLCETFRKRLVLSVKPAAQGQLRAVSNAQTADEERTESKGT

The term IC50 denotes the concentration that inhibits the measured activity by half. Turning to `CC(=O)Nc1cccc(C2CCN(CCCn3c(-c4ccccc4)nc4ccc(Br)cc43)CC2)c1` [Example 43, 2-phenyl-1-{3-[4-(3-acetylaminophenyl)piperidin-1-yl]propyl}-6-bromo-1H-benzimidazole], the half-maximal inhibitory concentration (IC50) came out at 3 nM.

As for `CC(=O)Nc1cccc(C2CCN(CCCn3c(-c4cc(F)c(F)c(F)c4F)nc4ccccc43)CC2)c1` [Example 44, 2-(2,3,4,5-tetrafluorophenyl)-1-{3-[4-(3-acetylaminophenyl)piperidin-1-yl]propyl}-1H-benzimidazole], the half-inhibitory concentration (IC50) was found to be 77 nM.

Regarding `CC(=O)Nc1cccc(C2CCN(CCCn3c(-c4ccc(C(F)(F)F)cc4)nc4ccccc43)CC2)c1` [Example 45, 2-(4-trifluoromethylphenyl)-1-{3-[4-(3-acetylaminophenyl)piperidin-1-yl]propyl}-1H-benzimidazole], the IC50 was 3 nM.

On to `CC(=O)Nc1cccc(C2CCN(CCCn3c(-c4ccc(-c5ccccc5)cc4)nc4ccccc43)CC2)c1` [Example 46, 2-(4-biphenyl)-1-{3-[4-(3-acetylaminophenyl)piperidin-1-yl]propyl}-1H-benzimidazole], for which the IC50 stood at 8 nM.

On to `CC(=O)Nc1cccc(C2CCN(CCCn3c(-c4ccc(Oc5ccccc5)cc4)nc4ccccc43)CC2)c1` [Example 47, 2-(4-phenoxyphenyl)-1-{3-[4-(3-acetylaminophenyl)piperidin-1-yl]propyl}-1H-benzimidazole], for which the IC50 was determined as 42 nM.

As to `CC(=O)Nc1cccc(C2CCN(CCCn3c(-c4ccc(F)cc4)nc4ccccc43)CC2)c1` [Example 48, 2-(4-fluorophenyl)-1-{3-[4-(3-acetylaminophenyl)piperidin-1-yl]propyl}-1H-benzimidazole], the concentration for half-maximal inhibition (IC50) was 56 nM.

On to `CC(=O)Nc1cccc(C2CCN(CCCn3c(-c4ccc(Cl)cc4)nc4cc(C)cc(C)c43)CC2)c1` [Example 49, 2-(4-chlorophenyl)-1-{3-[4-(3-acetylaminophenyl)piperidin-1-yl]propyl}-5,7-dimethyl-1H-benzimidazole], for which the concentration for half-maximal inhibition (IC50) was 197 nM.

With `CC(=O)Nc1cccc(C2CCN(CCCn3c(-c4ccc(F)c(F)c4)nc4ccccc43)CC2)c1` [Example 50, 2-(3,4-difluorophenyl)-1-{3-[4-(3-acetylaminophenyl)piperidin-1-yl]propyl}-1H-benzimidazole], the IC50 came out at 4 nM.

`CC(=O)Nc1cccc(C2CCN(CCCn3c(-c4ccc(C#N)cc4)nc4ccccc43)CC2)c1` [Example 51, 2-(4-cyanophenyl)-1-{3-[4-(3-acetylaminophenyl)piperidin-1-yl]propyl}-1H-benzimidazole]: the IC50 was 16 nM.

For `CC(=O)Nc1cccc(C2CCN(CCCn3c(-c4cccc(C#N)c4)nc4ccccc43)CC2)c1` [Example 52, 2-(3-cyanophenyl)-1-{3-[4-(3-acetylaminophenyl)piperidin-1-yl]propyl}-1H-benzimidazole], the IC50 is 15 nM.

For the compound `CC(=O)Nc1cccc(C2CCN(CCCn3c(-c4ccc(Cl)cc4F)nc4ccccc43)CC2)c1` [Example 53, 2-(4-chloro-2-fluorophenyl)-1-{3-[4-(3-acetylaminophenyl)piperidin-1-yl]propyl}-1H-benzimidazole], the IC50 worked out at 1 nM.

`CC(=O)Nc1cccc(C2CCN(CCCn3c(-c4ccc(F)cc4Cl)nc4ccccc43)CC2)c1` [Example 54, 2-(2-chloro-4-fluorophenyl)-1-{3-[4-(3-acetylaminophenyl)piperidin-1-yl]propyl}-1H-benzimidazole]: the half-maximal inhibitory concentration (IC50) came out at 4 nM.

Take `CC(=O)Nc1cccc(C2CCN(CCCn3c(-c4cccc([N+](=O)[O-])c4)nc4ccccc43)CC2)c1` [Example 55, 2-(3-nitrophenyl)-1-{3-[4-(3-acetylaminophenyl)piperidin-1-yl]propyl}-1H-benzimidazole]: the IC50 was found to be 8 nM.

For the compound `COc1ccc(Cl)cc1-c1nc2ccccc2n1CCCN1CCC(c2cccc(NC(C)=O)c2)CC1` [Example 56, 2-(5-chloro-2-methoxyphenyl)-1-{3-[4-(3-acetylaminophenyl)piperidin-1-yl]propyl}-1H-benzimidazole], the concentration for half-maximal inhibition (IC50) turned out to be 66 nM.

Regarding `CC(=O)Nc1cccc(C2CCN(CCCn3c(-c4ccc([N+](=O)[O-])cc4Cl)nc4ccccc43)CC2)c1` [Example 57, 2-(2-chloro-4-nitrophenyl)-1-{3-[4-(3-acetylaminophenyl)piperidin-1-yl]propyl}-1H-benzimidazole], the half-maximal inhibitory concentration (IC50) came out at 37 nM.

For `COc1ccc(-c2nc3ccccc3n2CCCN2CCC(c3cccc(NC(C)=O)c3)CC2)c(OC)c1` [Example 58, 2-(2,4-dimethoxyphenyl)-1-{3-[4-(3-acetylaminophenyl)piperidin-1-yl]propyl}-1H-benzimidazole], the IC50 is 22 nM.

As to `CC(=O)Nc1cccc(C2CCN(CCCn3c(-c4ccc(Cl)cc4F)nc4cc(C)c(C)cc43)CC2)c1` [Example 59, 2-(4-chloro-2-fluorophenyl)-1-{3-[4-(3-acetylaminophenyl)piperidin-1-yl]propyl}-5,6-dimethyl-1H-benzimidazole], the concentration for half-maximal inhibition (IC50) worked out at 239 nM.

For `CC(=O)Nc1cccc(C2CCN(CCCn3c(-c4ccc(Cl)cc4)nc4cc(C(N)=O)ccc43)CC2)c1` [Example 60, 2-(4-chlorophenyl)-1-{3-[4-(3-acetylaminophenyl)piperidin-1-yl]propyl}-5-carbamoyl-1H-benzimidazole], the half-maximal inhibitory concentration (IC50) is 8 nM.

As for `CC(=O)Nc1cccc(C2CCN(CCCn3c(-c4ccc(Cl)cc4)nc4ccc(C(N)=O)cc43)CC2)c1` [Example 61, 2-(4-chlorophenyl)-1-{3-[4-(3-acetylaminophenyl)piperidin-1-yl]propyl}-6-carbamoyl-1H-benzimidazole], the IC50 was 199 nM.

Consider `CC(=O)Nc1cccc(C2CCN(CCCn3c(-c4cccc(C(N)=O)c4)nc4ccccc43)CC2)c1` [Example 62, 2-(3-carbamoylphenyl)-1-{3-[4-(3-acetylaminophenyl)piperidin-1-yl]propyl}-1H-benzimidazole], for which the IC50 turned out to be 11 nM.

For `CC(=O)Nc1cccc(C2CCN(CCCn3c(-c4ccccc4O)nc4ccccc43)CC2)c1` [Example 63, 2-(2-hydroxyphenyl)-1-{3-[4-(3-acetylaminophenyl)piperidin-1-yl]propyl}-1H-benzimidazole], the half-maximal inhibitory concentration (IC50) was found to be 94 nM.

With `CC(C)C(=O)Nc1cccc(C2CCN(CCCn3c(-c4ccc(Cl)cc4)nc4ccccc43)CC2)c1` [Example 64, 2-(4-chlorophenyl)-1-{3-[4-(3-isobutyrylaminophenyl)piperidin-1-yl]propyl}-1H-benzimidazole], the IC50 is 5 nM.

Turning to `O=C(Nc1cccc(C2CCN(CCCn3c(-c4ccc(Cl)cc4)nc4ccccc43)CC2)c1)c1ccccc1` [Example 65, 2-(4-chlorophenyl)-1-{3-[4-(3-benzoylaminophenyl)piperidin-1-yl]propyl}-1H-benzimidazole], the IC50 came out at 19 nM.

With `O=C(Nc1cccc(C2CCN(CCCn3c(-c4ccc(Cl)cc4)nc4ccccc43)CC2)c1)c1cccc(Cl)c1` [Example 66, 2-(4-chlorophenyl)-1-{3-[4-(3-(3-chlorobenzoylamino)phenyl)piperidin-1-yl]propyl}-1H-benzimidazole], the IC50 came to 213 nM.

With `Cc1ccc(C(=O)Nc2cccc(C3CCN(CCCn4c(-c5ccc(Cl)cc5)nc5ccccc54)CC3)c2)cc1` [Example 67, 2-(4-chlorophenyl)-1-{3-[4-(3-(4-methylbenzoylamino)phenyl)piperidin-1-yl]propyl}-1H-benzimidazole], the IC50 is above 10000 nM.
